We go through 16 compounds from ChEMBL document CHEMBL1770070, “Dibenzylideneacetone analogues as novel Plasmodium falciparum inhibitors” (Bioorg Med Chem Lett, 2011).

The test system of the first series is Plasmodium falciparum. Description: Resistance index, ratio for IC50 for chloroquine-resistant Plasmodium falciparum isolate RKL9 to IC50 for chloroquine-sensitive Plasmodium falciparum 3D7. The format is functional.
Details: not given
Regarding `Fc1ccc(/C=C/C2=NN(c3ccccc3)C(c3ccc(F)cc3)C2)cc1` (configuration not stated), the “Ratio IC50” value came out at 1.21.

Consider `O=C(/C=C/c1ccc(Cl)cc1Cl)/C=C/c1ccc(Cl)cc1Cl`, for which the “Ratio IC50” value is reported as 1.08.

Consider `O=C(/C=C/c1ccccc1Cl)/C=C/c1ccccc1Cl`, for which the “Ratio IC50” value is reported as 1.

On to `COc1ccc(/C=C/C(=O)/C=C/c2ccc(OC)c(OC)c2)cc1OC`, for which the “Ratio IC50” value is listed as 0.85.

Tested on in another series: not listed separately
Description: Therapeutic index, TC50 for human HeLa cells to IC50 for chloroquine-resistant Plasmodium falciparum isolate RKL9. The format is cell-based. Particulars: read-out: TI.
For the compound `Fc1ccc(/C=C/C2=NN(c3ccccc3)C(c3ccc(F)cc3)C2)cc1` (configuration not stated), the selectivity ratio was more than 25.

Consider `O=C(/C=C/c1ccc(Cl)cc1Cl)/C=C/c1ccc(Cl)cc1Cl`, for which the selectivity ratio was more than 25.

As to `O=C(/C=C/c1ccccc1Cl)/C=C/c1ccccc1Cl`, the selectivity ratio is 37.

`COc1ccc(/C=C/C(=O)/C=C/c2ccc(OC)c(OC)c2)cc1OC`: the selectivity ratio came to 166.

Tested on in the next series: not listed separately
Description: Cytotoxic activity against human HeLa cells after 24 to 48 hrs by MTT assay. The format is cell-based. Particulars: read-out: TC50 (the source's name). Background: Tetrazolium assays rely on reduction of a dye to a coloured formazan, in cell work by metabolically active cells.
As to `Fc1ccc(/C=C/C2=NN(c3ccccc3)C(c3ccc(F)cc3)C2)cc1` (configuration not stated), the CC50 was more than 277 µM.

For the compound `O=C(/C=C/c1ccc(Cl)cc1Cl)/C=C/c1ccc(Cl)cc1Cl`, the CC50 was more than 269 µM.

In the case of `O=C(/C=C/c1ccccc1Cl)/C=C/c1ccccc1Cl`, the CC50 was determined as 231 µM.

For `COc1ccc(/C=C/C(=O)/C=C/c2ccc(OC)c(OC)c2)cc1OC`, the CC50 worked out at 282 µM.

For the next series, the system named is Plasmodium falciparum. The series is described as follows: Antiplasmodial activity against blood stage of chloroquine-resistant Plasmodium falciparum isolate RKL9 infected in human O positive erythrocytes after 48 hrs by SYBR green I-based fluorescence assay. The format is functional, organism-based. Particulars: isolate RKL9, 48 h.
The IC50 is the point on the concentration scale where inhibition reaches its midpoint. `Fc1ccc(/C=C/C2=NN(c3ccccc3)C(c3ccc(F)cc3)C2)cc1` (configuration not stated) came in with a concentration for half-maximal inhibition (IC50) of 11.1 µM.

As to `O=C(/C=C/c1ccc(Cl)cc1Cl)/C=C/c1ccc(Cl)cc1Cl`, the concentration for half-maximal inhibition (IC50) was determined as 10.8 µM.

Take `O=C(/C=C/c1ccccc1Cl)/C=C/c1ccccc1Cl`: it took 6.26 µM to reach half-maximal inhibition (IC50).

`COc1ccc(/C=C/C(=O)/C=C/c2ccc(OC)c(OC)c2)cc1OC` registered a concentration for half-maximal inhibition (IC50) of 1.69 µM. Against the preceding compound, the IC50 is about 3.7-fold lower.

In another series the test system is Plasmodium falciparum. Description: Antiplasmodial activity against blood stage of chloroquine-sensitive Plasmodium falciparum 3D7 infected in human O positive erythrocytes after 48 hrs by SYBR green-I based fluorescence assay. The class given is functional, organism-based. Particulars: 3D7, 48 h.
In turn, `COc1ccc(/C=C/C(=O)/C=C/c2ccc(OC)cc2)cc1` came in with a half-inhibitory concentration (IC50) of 255 µM.

`O=C(/C=C/c1ccccc1)/C=C/c1ccccc1` displayed an IC50 of 213 µM.

As to `Cc1ccc(/C=C/C2=NN(c3ccccc3)C(c3ccc(C)cc3)C2)cc1` (configuration not stated), the IC50 is more than 142 µM.

`Fc1ccc(/C=C/C2=NN(c3ccccc3)C(c3ccc(F)cc3)C2)cc1` (configuration not stated) yielded an IC50 of 9.1 µM.

As to `O=C(/C=C/c1ccc(Cl)cc1Cl)/C=C/c1ccc(Cl)cc1Cl`, the concentration for half-maximal inhibition (IC50) came to 9.94 µM.

Take `COc1ccccc1/C=C/C(=O)/C=C/c1ccccc1OC`: it took 74.7 µM to reach half-maximal inhibition (IC50).

In the case of `CN(C)c1ccc(/C=C/C(=O)/C=C/c2ccc(N(C)C)cc2)cc1`, it took 156 µM to reach half-maximal inhibition (IC50).

The compound `O=C(/C=C/c1ccc(Cl)cc1)/C=C/c1ccc(Cl)cc1` showed a half-inhibitory concentration (IC50) of 92.4 µM. Compared with the last compound, the IC50 is about 1.7-fold lower.

Turning to `O=C(/C=C/c1ccccc1Cl)/C=C/c1ccccc1Cl`, the concentration for half-maximal inhibition (IC50) came to 6.26 µM.

Turning to `O=C(/C=C/c1ccc(F)cc1)/C=C/c1ccc(F)cc1`, the midpoint of inhibition, the IC50, lay at 133 µM.

In turn, `O=C(/C=C/c1ccc(Br)cc1)/C=C/c1ccc(Br)cc1` showed an IC50 of 222 µM.

In turn, `O=C(/C=C/c1cccc([N+](=O)[O-])c1)/C=C/c1cccc([N+](=O)[O-])c1` had an IC50 of 38.5 µM. This IC50 lies about 5.8-fold lower than the previous one.

Consider `C(=C\c1ccccc1)/C1=NN(c2ccccc2)C(c2ccccc2)C1` (configuration not stated), for which the IC50 was more than 308 µM.

`COc1ccc(/C=C/C2=NN(c3ccccc3)C(c3ccc(OC)cc3)C2)cc1` (configuration not stated) showed a half-maximal inhibitory concentration (IC50) of more than 130 µM.

For `COc1ccc(/C=C/C(=O)/C=C/c2ccc(OC)c(OC)c2)cc1OC`, the IC50 came out at 1.97 µM. This lies in the single-digit micromolar range.

`Cc1ccc(/C=C/C(=O)/C=C/c2ccc(C)cc2)cc1` showed a half-maximal inhibitory concentration (IC50) of 114 µM.
